Test results published in US10314809B2, “Application of derivative of clostridium ghonii” (SHANDONG XINCHUANG BIOTECHNOLOGY CO., LTD., priority 2014, dated 2019).

System: non-small cell lung carcinoma A549 cells
Assay: Example 2: in-vivo test of spores combined with chemotherapy medicines in A549 tumor-bearing nude mice
Parameters: species or system Balb/c-nu/nu nude mice
Description: The non-small cell lung carcinoma A549 cells were injected into the subcutaneous positions at femoral lateral parts of right backs of female Balb/c-nu/nu nude mice (5 weeks old, 20 g) by subcutaneous injection. The in-vivo test was performed when the tumor volume was 300 mm^3.
Control group: n=15, and 0.2 ml of PBS buffer was intravenously injected to the tails;
Docetaxel group: n=15, Docetaxel was intravenously injected to the tails on the 4th day and 11th day, the dose was 20 mg/(kg·body weight), and the application dose of Docetaxel was the optimal application dose.
MW-DCG-HNCv-18 spore group: n=15, spores were intravenously injected to the tails, and the dose was 3×10^8/(kg·body weight).
(§1) MW-DCG-HNCv-18 spore+Cetuximab group: n=15, MW-DCG-HNCv-18 spores were intravenously injected to the tails on the first day, and the dose was 3×10^8/(kg·body weight); Cetuximab was intravenously injected to the tails on the 4th day and 11th day, the dose was 70 mg/(kg·body weight), and the application dose of Cetuximab was the optimal application dose.
as §1, with “weight); Adriacin” for “weight); Cetuximab”, “was 10” for “was 70”, “of Adriacin” for “of Cetuximab”
MW-DCG-HNCv-18 spore+Docetaxel group: n=15, MW-DCG-HNCv-18 spores were intravenously injected to the tails on the first day, and the dose was 3×10^8/(kg·body weight); Docetaxel was intravenously injected to the tails on the 4th day and 11th day, and the dose was 20 mg/(kg·body weight).
C. novyi-NT spore+Docetaxel group: n=15, C. novyi-NT spores were intravenously injected to the tails on the first day, and the dose was 3×10^8/(kg·body weight);
Docetaxel was intravenously injected to the tails on the 4th day and 11th day, and the dose was 20 mg/(kg·body weight).
The major diameter (a) and transverse diameter (b) of the transplanted tumors of the nude mice were measured with a vernier caliper, 3 to 4 times a week, the tumor volume of each group was calculated, and the anti-tumor effects of the strains were observed dynamically. At the same time, the body weight, feeding, drinking, mental state, behavior, fur color, excretion and death situations of the tumor-bearing mice were observed and recorded.
The tumor volume (V=½×a×b^2) was calculated according to the measured major diameter and transverse diameter data of the tumors, the curve was drawn and the tumors were observed dynamically. […]
The overall survival time of the tumor-bearing mice: the nude mice in each group after processing were fed until natural death, and the survival time was calculated.

[1] = spores 3×10^8/(kg·body weight) i.v. day 1, drug i.v. 4th and 11th day (Docetaxel 20, Cetuximab 70, Adriacin 10 mg/kg)

CC(=O)O[C@@]12CO[C@@H]1C[C@H](O)[C@@]1(C)C(=O)[C@H](O)C3=C(C)[C@@H](OC(=O)[C@H](O)[C@@H](NC(=O)OC(C)(C)C)c4ccccc4)C[C@@](O)([C@@H](OC(=O)c4ccccc4)[C@H]21)C3(C)C [Docetaxel]
Cure rate (animals with tumor completely removed/total, spores 3×10^8/kg day 1, drug i.v. 4th and 11th day): 0% | Necrosis rate [1]: 22.2% | Tumor inhibition rate [1]: 55.9% | mean survival days (spores 3×10^8/kg day 1, drug i.v. 4th and 11th day, fed until natural death): 35.5 days
